Assay results from PubChem BioAssay AID256 (DTP/NCI, 2004).
Values joined by “and” are separate entries in the source; they are usually repeats but may differ in a detail not shown here. Identical values can stand only once. Inconclusive results and toxic doses are left out.

Tested on: CD2F1 mice, L1210 leukemia ip, survival T/C
Experiment: NCI In Vivo Anticancer Drug Screen. Data for tumor model L1210 Leukemia (intraperitoneal) in CD2F1 (CDF1) mice
Conditions: higher = longer survival
In short: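 In this screen, transplantable tumors were grown in mice given either the compound or its vehicle. Results were expressed as the treated measurement relative to the control measurement.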

[1] = endpoint: mean survival time, dose: 25.0 mg/kg/injection, schedule: Q01DX009 (ip), vehicle: Klucel (hydroxypropylcellulose) (HPC)
[2] = endpoint: mean survival time, dose: 50.0 mg/kg/injection, schedule: Q01DX009 (ip), vehicle: Klucel (hydroxypropylcellulose) (HPC)
[3] = endpoint: mean survival time, dose: 100.0 mg/kg/injection, schedule: Q01DX009 (ip), vehicle: Klucel (hydroxypropylcellulose) (HPC)
[4] = endpoint: mean survival time, dose: 100.0 mg/kg/injection, schedule: Q04DX003 (ip), vehicle: Klucel (hydroxypropylcellulose) (HPC)
[5] = endpoint: mean survival time, dose: 200.0 mg/kg/injection, schedule: Q04DX003 (ip), vehicle: Klucel (hydroxypropylcellulose) (HPC)
[6] = endpoint: mean survival time, dose: 100.0 mg/kg/injection, schedule: Q04DX003 (ip), vehicle: saline with Tween-80
[7] = endpoint: mean survival time, dose: 200.0 mg/kg/injection, schedule: Q04DX003 (ip), vehicle: saline with Tween-80
[8] = endpoint: mean survival time, dose: 400.0 mg/kg/injection, schedule: Q04DX003 (ip), vehicle: saline with Tween-80
[9] = endpoint: mean survival time, dose: 12.5 mg/kg/injection, schedule: Q01DX009 (ip), vehicle: saline with Tween-80
[10] = endpoint: mean survival time, dose: 25.0 mg/kg/injection, schedule: Q01DX009 (ip), vehicle: saline with Tween-80
[11] = endpoint: mean survival time, dose: 50.0 mg/kg/injection, schedule: Q01DX009 (ip), vehicle: saline with Tween-80
[12] = endpoint: mean survival time, dose: 50.0 mg/kg/injection, schedule: Q04DX002 (ip), vehicle: saline with Tween-80
[13] = endpoint: mean survival time, dose: 100.0 mg/kg/injection, schedule: Q01DX009 (ip), vehicle: saline with Tween-80
[14] = endpoint: mean survival time, dose: 100.0 mg/kg/injection, schedule: Q04DX002 (ip), vehicle: saline with Tween-80
[15] = endpoint: mean survival time, dose: 200.0 mg/kg/injection, schedule: Q01DX009 (ip), vehicle: saline with Tween-80
[16] = endpoint: mean survival time, dose: 200.0 mg/kg/injection, schedule: Q04DX002 (ip), vehicle: saline with Tween-80

## Cc1cc(N2C(=O)CCSC2=S)ccc1Cl
endpoint: mean survival time, dose: 12.5 mg/kg/injection, schedule: Q01DX009 (ip), vehicle: Klucel (hydroxypropylcellulose) (HPC)
  T/C: 101 % of control and 105 % of control
[1]
  T/C: 95 % of control and 103 % of control and 109 % of control
[2]
  T/C: 113 % of control and 97 % of control
[3]
  T/C: 122 % of control and 123 % of control and 97 % of control
endpoint: mean survival time, dose: 200.0 mg/kg/injection, schedule: Q01DX009 (ip), vehicle: Klucel (hydroxypropylcellulose) (HPC)
  T/C: 95 % of control and 107 % of control
endpoint: mean survival time, dose: 400.0 mg/kg/injection, schedule: Q01DX009 (ip), vehicle: Klucel (hydroxypropylcellulose) (HPC)
  T/C: 102 % of control

## CN(C)c1ccc(/C=C2/CCCC/C2=N/O)cc1
[4]
  T/C: 102 % of control
[5]
  T/C: 94 % of control
endpoint: mean survival time, dose: 400.0 mg/kg/injection, schedule: Q04DX003 (ip), vehicle: Klucel (hydroxypropylcellulose) (HPC)
  T/C: 98 % of control

## O=NC1C2C=CC(C2)C1Cl (stereo not given)
endpoint: mean survival time, dose: 100.0 mg/kg/injection, schedule: Q01DX001 (ip), vehicle: saline
  T/C: 93 % of control
endpoint: mean survival time, dose: 200.0 mg/kg/injection, schedule: Q01DX001 (ip), vehicle: saline
  T/C: 88 % of control
endpoint: mean survival time, dose: 400.0 mg/kg/injection, schedule: Q01DX001 (ip), vehicle: saline
  T/C: 96 % of control

## CC/C(=N/O)C(N)=O
[6]
  T/C: 100 % of control
[7]
  T/C: 103 % of control
[8]
  T/C: 105 % of control

## O=C(O)COc1ccc(Cl)cc1Cl (tested in a mixture with another compound)
[9]
  T/C: 89 % of control
[10]
  T/C: 94 % of control
endpoint: mean survival time, dose: 25.0 mg/kg/injection, schedule: Q04DX002 (ip), vehicle: saline with Tween-80
  T/C: 111 % of control
[11]
  T/C: 87 % of control and 104 % of control
[12]
  T/C: 121 % of control
[13]
  T/C: 101 % of control
[14]
  T/C: 99 % of control
[15]
  T/C: 93 % of control
[16]
  T/C: 96 % of control

## CSc1ccc(NC(C)=O)cc1
endpoint: mean survival time, dose: 100.0 mg/kg/injection, schedule: Q01DX001 (ip), vehicle: Klucel (hydroxypropylcellulose) (HPC)
  T/C: 94 % of control
endpoint: mean survival time, dose: 200.0 mg/kg/injection, schedule: Q01DX001 (ip), vehicle: Klucel (hydroxypropylcellulose) (HPC)
  T/C: 96 % of control
endpoint: mean survival time, dose: 400.0 mg/kg/injection, schedule: Q01DX001 (ip), vehicle: Klucel (hydroxypropylcellulose) (HPC)
  T/C: 96 % of control

## COC1=C(Br)[C@H](O)[C@](O)(CC#N)C=C1Br
endpoint: mean survival time, dose: 6.25 mg/kg/injection, schedule: Q01DX009 (ip), vehicle: saline
  T/C: 113 % of control
endpoint: mean survival time, dose: 12.5 mg/kg/injection, schedule: Q01DX009 (ip), vehicle: saline
  T/C: 111 % of control
endpoint: mean survival time, dose: 17.5 mg/kg/injection, schedule: Q01DX009 (ip), vehicle: Klucel (hydroxypropylcellulose) (HPC)
  T/C: 98 % of control
endpoint: mean survival time, dose: 25.0 mg/kg/injection, schedule: Q01DX009 (ip), vehicle: saline
  T/C: 117 % of control
endpoint: mean survival time, dose: 35.0 mg/kg/injection, schedule: Q01DX009 (ip), vehicle: Klucel (hydroxypropylcellulose) (HPC)
  T/C: 100 % of control
endpoint: mean survival time, dose: 70.0 mg/kg/injection, schedule: Q01DX009 (ip), vehicle: Klucel (hydroxypropylcellulose) (HPC)
  T/C: 102 % of control

## NC(=S)NNC(=O)c1ccccc1
[4]
  T/C: 91 % of control
[5]
  T/C: 91 % of control

## CC(C)C(O)c1ccccc1 (stereo not given)
[9]
  T/C: 103 % of control
endpoint: mean survival time, dose: 25.0 mg/kg/injection, schedule: Q01DX005 (ip), vehicle: saline with Tween-80
  T/C: 92 % of control
[10]
  T/C: 106 % of control
endpoint: mean survival time, dose: 50.0 mg/kg/injection, schedule: Q01DX005 (ip), vehicle: saline with Tween-80
  T/C: 95 % of control
[11]
  T/C: 95 % of control
[12]
  T/C: 108 % of control
endpoint: mean survival time, dose: 100.0 mg/kg/injection, schedule: Q01DX005 (ip), vehicle: saline with Tween-80
  T/C: 88 % of control
[13]
  T/C: 88 % of control
[14]
  T/C: 101 % of control
[16]
  T/C: 89 % of control

## Oc1ccc(Sc2ccc(O)cc2O)c(O)c1
endpoint: mean survival time, dose: 100.0 mg/kg/injection, schedule: Q04DX003 (ip), vehicle: saline
  T/C: 101 % of control
endpoint: mean survival time, dose: 200.0 mg/kg/injection, schedule: Q04DX003 (ip), vehicle: saline
  T/C: 103 % of control
endpoint: mean survival time, dose: 400.0 mg/kg/injection, schedule: Q04DX003 (ip), vehicle: saline
  T/C: 93 % of control

## Nc1cccc(N2N=C(C(=O)O)CC2=O)c1
[13]
  T/C: 90 % of control
[6]
  T/C: 103 % of control
[15]
  T/C: 91 % of control
[7]
  T/C: 103 % of control
endpoint: mean survival time, dose: 400.0 mg/kg/injection, schedule: Q01DX009 (ip), vehicle: saline with Tween-80
  T/C: 91 % of control
[8]
  T/C: 101 % of control

## CC(=O)Oc1cccc2c1C(=O)c1c(OC(C)=O)cccc1C2=O
endpoint: mean survival time, dose: 25.0 mg/kg/injection, schedule: Q01DX009 (ip), vehicle: water
  T/C: 102 % of control
endpoint: mean survival time, dose: 50.0 mg/kg/injection, schedule: Q01DX009 (ip), vehicle: water
  T/C: 93 % of control
endpoint: mean survival time, dose: 100.0 mg/kg/injection, schedule: Q01DX009 (ip), vehicle: water
  T/C: 96 % of control
endpoint: mean survival time, dose: 200.0 mg/kg/injection, schedule: Q01DX009 (ip), vehicle: water
  T/C: 88 % of control

## O=C(O)/C(Cl)=C(/Cl)C(Cl)=C(Cl)Cl
[10]
  T/C: 96 % of control
endpoint: mean survival time, dose: 25.0 mg/kg/injection, schedule: Q04DX003 (ip), vehicle: saline with Tween-80
  T/C: 100 % of control
[11]
  T/C: 95 % of control
endpoint: mean survival time, dose: 50.0 mg/kg/injection, schedule: Q04DX003 (ip), vehicle: saline with Tween-80
  T/C: 98 % of control
[13]
  T/C: 93 % of control
[6]
  T/C: 91 % of control

## CSc1nnc(Sc2ccccc2)c(SC)n1
endpoint: mean survival time, dose: 75.0 mg/kg/injection, schedule: Q01DX001 (ip), vehicle: saline
  T/C: 101 % of control
endpoint: mean survival time, dose: 150.0 mg/kg/injection, schedule: Q01DX001 (ip), vehicle: saline
  T/C: 98 % of control

## CCOC(=O)C(c1ccccc1)c1ccccc1
[6]
  T/C: 102 % of control
[7]
  T/C: 111 % of control
[8]
  T/C: 103 % of control

## CC(C)(C)c1ccc(-c2ccncc2)cc1
[14]
  T/C: 87 % of control
[16]
  T/C: 105 % of control

## CC(C)(C)C(=O)OCC1OC(n2ccc(O)cc2=O)C(O)C1O (stereo not given)
endpoint: median survival time, dose: 67.0 mg/kg/injection, schedule: Q01DX009 (ip), vehicle: saline + Tween-80 + alcohol
  T/C: 168 % of control
endpoint: median survival time, dose: 100.0 mg/kg/injection, schedule: Q01DX009 (ip), vehicle: saline + Tween-80 + alcohol
  T/C: 163 % of control
endpoint: median survival time, dose: 150.0 mg/kg/injection, schedule: Q01DX009 (ip), vehicle: saline + Tween-80 + alcohol
  T/C: 150 % of control
endpoint: median survival time, dose: 225.0 mg/kg/injection, schedule: Q01DX009 (ip), vehicle: saline + Tween-80 + alcohol
  T/C: 154 % of control

## CCCCCCCCCCCCn1cnc2c(Cl)ncnc21
endpoint: mean survival time, dose: 12.5 mg/kg/injection, schedule: Q01DX005 (ip), vehicle: other
  T/C: 102 % of control
endpoint: mean survival time, dose: 25.0 mg/kg/injection, schedule: Q01DX005 (ip), vehicle: other
  T/C: 96 % of control
endpoint: mean survival time, dose: 50.0 mg/kg/injection, schedule: Q01DX005 (ip), vehicle: other
  T/C: 100 % of control
endpoint: mean survival time, dose: 100.0 mg/kg/injection, schedule: Q01DX005 (ip), vehicle: other
  T/C: 94 % of control
endpoint: mean survival time, dose: 200.0 mg/kg/injection, schedule: Q01DX005 (ip), vehicle: other
  T/C: 100 % of control

## Cc1cc(N(CCI)CCI)ccc1N=Nc1ccccc1C(=O)O
[1]
  T/C: 122 % of control
[2]
  T/C: 122 % of control
[3]
  T/C: 122 % of control

## O=C(Nc1ccc(O)cc1)c1c(O)[nH]c(=S)[nH]c1=O
endpoint: median survival time, dose: 12.5 mg/kg/injection, schedule: Q01DX009 (ip), vehicle: saline with Tween-80
  T/C: 107 % of control
endpoint: median survival time, dose: 25.0 mg/kg/injection, schedule: Q01DX009 (ip), vehicle: saline with Tween-80
  T/C: 106 % of control
endpoint: median survival time, dose: 50.0 mg/kg/injection, schedule: Q01DX009 (ip), vehicle: saline with Tween-80
  T/C: 106 % of control
endpoint: median survival time, dose: 100.0 mg/kg/injection, schedule: Q01DX009 (ip), vehicle: saline with Tween-80
  T/C: 100 % of control

## CCCCCCCCOCCOCCOCCOCCOCCCCCCCC
[14]
  T/C: 102 % of control
[16]
  T/C: 98 % of control
endpoint: mean survival time, dose: 400.0 mg/kg/injection, schedule: Q04DX002 (ip), vehicle: saline with Tween-80
  T/C: 102 % of control
